# Results taken from patent US20100035907A1, “NEW 2,4-DIANILINOPYRIMIDINES, PREPARATION THEREOF AS DRUGS, PHARMACEUTICAL COMPOSITIONS AND USE THEREOF ESSENTIALLY AS IKK INHIBITORS” (Sanofi-aventis, priority 2007, published 2010).
row,SMILES,melting point [°C]
1,"Cc1cc(Nc2ccnc(Nc3ccc(C(=O)N(C)C4CCCN(CCCC(F)(F)F)C4)cc3)n2)ccc1F (centres unmarked) [Example 2, 4-[4-(4-Fluoro-3-methylphenylamino)pyrimidin-2-ylamino]-N-methyl-N-[1-(4,4,4-trifluorobutyl)piperidin-3-yl]benzamide]",100 to 110
2,"Cc1cc(Nc2ccnc(Nc3ccc(C(=O)N(C)C4CCCN(Cc5csnn5)C4)cc3)n2)ccc1F (centres unmarked) [Example 3, 4-[4-(4-Fluoro-3-methylphenylamino)pyrimidin-2-ylamino]-N-methyl-N-[1-(1,2,3-thiadiazol-4-ylmethyl)piperidin-3-yl]benzamide]",125 to 130
3,"CN(C(=O)c1ccc(Nc2nccc(Nc3ccc(C(F)(F)F)cc3)n2)cc1)C1CCOCC1 [Example 5, N-Methyl-N-(tetrahydropyran-4-yl)-4-[4-(4-(trifluoromethyl)phenylamino)pyrimidin-2-ylamino]benzamide]",254 to 256

# Further lines, results first:
row,melting point [°C],SMILES
1,238 to 244,"CN1CCC(N(C)C(=O)c2ccc(Nc3nccc(Nc4ccc(C(F)(F)F)cc4)n3)cc2)CC1 [Example 4, N-Methyl-N-(1-methylpiperidin-4-yl)-4-[4-(4-(trifluoromethyl)phenylamino)pyrimidin-2-ylamino]benzamide]"
2,230 to 235,CN(C(=O)c1ccc(Nc2nccc(Nc3ccc(F)cc3)n2)cc1)C1CCN2CCCC2C1 (centres unmarked) [Example 7]
